From patent US20230263797A1, “Mammalian Hybrid Pre-Autophagosomal Structure HyPAS and Compositions and Methods for the Treatment of Coronavirus Infections and Related Disease States” (UNM Rainforest Innovations, priority 2021, published 2023) come the findings set out here.

One experiment concerns HyPAS formation. Nature of the experiment: High content microscopy (HCM) quantification of HyPAS formation (overlap between FIP200 and FLAG-ATG16L1). Format: cell-based, human. The procedure: (§1) HCM was performed as described previously (Kumar et al., 2019). Cells were stimulated for autophagy by incubating in EBSS for 2 h followed by fixation with 4% paraformaldehyde for 5 mins. Cells were permeabilized with 0.1% saponin and blocked in 3% BSA for 30 mins followed by incubation with primary antibody for 6 h and secondary antibody for 1 h. High content microscopy with automated image acquisition and quantification was carried out using a Cellomics HCS scanner and iDEV software (Thermo) in 96-well plates (Kumar et al., 2019). For HCM experiments >500 primary objects were counted per well, minimum 6 wells were counted per experiments and data presented in figures are derived from at least 3 independent experiments.
Immunofluorescence confocal microscopy was carried out as described previously (Kumar et al., 2019). Briefly, cells were plated onto coverslips in 6 well or 12-well plates. Transfected cells were incubated in full media or EBSS (Earle's Balanced Salt Solution) for 2 h and fixed in 4% paraformaldehyde for 10 min followed by permeabilization with 0.1% saponin in 3% BSA. Cells were blocked 3% BSA and then incubated with primary antibodies for 4 h. Cells were washed three times with PBS and then incubated with appropriate secondary antibodies (Invitrogen) for 1 h at room temperature. Coverslips were then mounted using ProLong Gold Antifade Mountant (Invitrogen) and analyzed by confocal microscopy using the Zeiss LSM510 Laser Scanning Microscope.

Experiment [1] deals with HyPAS formation in vitro (GFP-FIP200 and mCherry-ATG16L1 membranes). The experiment is described as follows: In vitro fusion ivitHC assay between GFP-FIP200 and mCherry-ATG16L1 membranes. Format: biochemical. The note with it: vesicles from cells induced for autophagy; BAPTA used at 20 μM. Here is the method: 293A WT or SIGMAR1^KO cells were plated in 96 well plates and transfected with indicated Keima plasmids. Cells were incubated in full media or induced for autophagy by incubating with EBSS for 8 h. Cells were then incubated in full media and incubated with Hoechst 33342 for ten minutes in full media and then acquired for Keima fluorescence at 440 nm and 560 nm using the Cell Insight CX7 High-Content Screening (HCS) Platform (Thermo)(Kumar et al., 2019). In Vitro Fusion ivitHC Assay In vitro fusion assay was developed for HCM platform by modifying a previously described assay (Matsui et al., 2018a; Moreau et al., 2011). […]
One hypothesis that emerged from the above studies is that FIP200 and ATG16L1 represent two precursor membranes with STX17 facilitating heterotypic fusion between them early in autophagy. […] This method mixes vesicles from different cells expressing green (GFP-FIP200) and red (mCherry-ATG16L1) markers and after addition of an ATP and ATP-regenerating system vesicle fusion is monitored by fluorescence microscopy. We adapted this to permit HCM quantification allowing highly powered analyses and termed it IvitHC (in vitro fusion high content assay) (FIG. 2A). […]

The subject of experiment [2] is STX17 and E-SYT2 interactions. The experiment is described as follows: Co-IP analysis of interactions of STX17 with E-SYT2 in 293T cells. The note with it: CQ treatment. It is filed as cell-based. Here is the method: (§2) Immunoblotting and co-immunoprecipitation (co-IP) were performed as described previously (Kumar et al., 2018). For co-IP, cells were transfected with 10 μg of plasmids, wherever stated, and lysed in NP-40 buffer containing protease inhibitor cocktail (Roche, cat #11697498001) and PMSF (Sigma, cat #93482). Lysates were mixed with 5 μg antibody and incubated at 4° C. for overnight followed by incubation with Dynabeads protein G (Life Technologies) for 4 h, at 4° C. Beads were washed three times with PBS and then boiled with SDS-PAGE buffer for analysis of interacting protein by immunoblotting.

Experiment [3] relates to STX17 and SERCA2 interactions. Nature of the experiment: Co-IP analysis of interactions of STX17 with SERCA2 in 293T cells. Format: cell-based. The note with it: CQ treatment. Here is the method:
as §2

Experiment [4] concerns LC3-ATG16L1 overlap in HeLa cells. Nature of the experiment: HCM colocalization between FLAG-ATG16L1 and LC3 (LAP-like noncanonical autophagy). Format: cell-based, human. As to conditions: WT or STX17KO HeLa cells; monensin 100 μM for 1 h. The procedure: as §1, with “Cells were stimulated for autophagy by incubating in EBSS for 2 h followed by fixation with 4% paraformaldehyde for 5 mins.” left out

With `CC(=O)OCOC(=O)CN(CC(=O)OCOC(C)=O)c1ccccc1OCCOc1ccccc1N(CC(=O)OCOC(C)=O)CC(=O)OCOC(C)=O` [BAPTA-AM], the HyPAS formation entry was “did not further affect” in the experiment on HyPAS formation (STX17KO HeLa cells, starvation-induced autophagy, BAPTA-AM treatment) and “reduced” with HyPAS formation (WT HeLa cells, starvation-induced autophagy (EBSS, 2 h), BAPTA-AM treatment). For the molecule `CN(C)CCN(C)CCc1ccc(Cl)c(Cl)c1` [BD1047, BD-1047], the “HyPAS formation induced by starvation” value in the experiment with HyPAS formation (HeLa cells induced for autophagy (EBSS, 2 h), 10 μM for 1 h) was “inhibited”. `CCN(CC)CCCC(C)Nc1ccnc2cc(Cl)ccc12` (stereo not shown) [CQ, chloroquine]: in experiment [1], the “HyPAS formation in vitro (IvitHC)” value is reported as “inhibited”. Further, the “STX17 and E-SYT2 interactions (co-IP)” value in experiment [2] is recorded as “inhibited”. Further, the “STX17 and SERCA2 interactions (co-IP)” value in experiment [3] is given as “did not inhibit”. Consider `C/C=C(/C)C(=O)O[C@H]1C(C)=C2[C@H]([C@@H]1OC(=O)CCCCCCC)[C@@](C)(OC(C)=O)C[C@H](OC(=O)CCC)[C@@]1(O)[C@H]2OC(=O)[C@@]1(C)O` [TG, thapsigargin], for which the “Effect of TG on HyPAS formation” value in the experiment with HyPAS formation (STX17KO HeLa cells) is “abrogated”. The HyPAS formation result in the experiment on HyPAS formation (WT HeLa cells, basal conditions, thapsigargin treatment) is on record as “increased”.

On to `COc1ccc(CCN2CCN(CCCc3ccccc3)CC2)cc1OC` [cutamesine], for which the HyPAS formation entry in the experiment with HyPAS formation (cells grown in full medium, 100 nM for 2 h) is listed as “induced”.

As to `CC[C@@]1([C@@H]2O[C@@H]([C@H]3O[C@@](O)(CO)[C@H](C)C[C@@H]3C)C[C@@H]2C)CC[C@H]([C@]2(C)CC[C@]3(C[C@H](O)[C@@H](C)[C@@H]([C@@H](C)[C@@H](OC)[C@H](C)C(=O)O)O3)O2)O1` [monensin], the “LC3-ATG16L1 overlap, as a measure of LAP-like noncanonical autophagy” value in experiment [4] was “increase”.
